Reference: ChEMBL document CHEMBL3886982, “Substituted bicyclic dihydropyrimidinones and their use as inhibitors of neutrophil elastase activity” (2016)
pIC50: −log10 of the molar value.

Biological target: T1, Neutrophil elastase (Homo sapiens, UniProt P08246)
T1 sequence (P08246 whole entry): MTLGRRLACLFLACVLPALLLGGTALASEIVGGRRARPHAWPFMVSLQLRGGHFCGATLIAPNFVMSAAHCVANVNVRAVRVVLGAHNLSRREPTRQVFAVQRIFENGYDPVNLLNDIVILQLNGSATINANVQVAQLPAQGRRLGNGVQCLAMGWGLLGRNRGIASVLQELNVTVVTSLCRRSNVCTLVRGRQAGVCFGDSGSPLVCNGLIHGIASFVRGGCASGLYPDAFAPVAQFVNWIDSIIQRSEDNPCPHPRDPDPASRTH
Test: Human Neutrophil Elastase Assay: The following buffers were used: Compound buffer: 100 mM Tris, 500 mM NaCl, adjusted to pH 7.5; Assay buffer: 100 mM Tris, 500 mM NaCl, adjusted to pH 7.5, containing 0.01% BSA.Assay conditions: Test compounds were prediluted in DMSO and subsequently in compound buffer (5% DMSO final). 5 μL of these compound dilutions were mixed with 10 μl Neutrophil elastase …
Description: Human Neutrophil Elastase Assay: The following buffers were used: Compound buffer: 100 mM Tris, 500 mM NaCl, adjusted to pH 7.5; Assay buffer: 100 mM Tris, 500 mM NaCl, adjusted to pH 7.5, containing 0.01% BSA.Assay conditions: Test compounds were prediluted in DMSO and subsequently in compound buffer (5% DMSO final). […] After inactivation of the enzyme, fluorescence intensities were measured at 380 nm excitation and 460 nm emission wavelengths.

Compound: CN1C(=O)N(c2cccc(C(F)(F)F)c2)C2=C(C(=O)CC2)C1c1ccc(C#N)cc1-c1ccnn1C (stereo unspecified)
- pIC50: 8.14
